Assay results published in US11771737B2, “Treating or preventing adverse liver conditions” (priority 2017, dated 2023).

What was measured:
[1] = tested on: hepatic NKT cells; test: In vivo bile acids feeding, hepatic NKT cell levels; settings: ABX-administered mice, oral gavage 6 mg/15 g body weight at 48, 24 and 16 hrs
[2] = tested on: EL4 tumor cells; test: Tail vein EL4 tumor cell injection, liver tumors in wild-type, CXCR6 and CD1d knockout mice; assay type: in vivo; settings: ABX-administered CXCR6−/− mice
Excerpt: Measurements were taken 3 weeks after injection. Cumulative data are shown. n=10 for Wt-H2O, 7 for Wt-ABX, 4 for CXCR6^−/−-H2O, 5 for CXCR6^−/−-ABX, 5 for CD1d^−/−-H2O, 4 for CD1d^−/−-ABX. p<0.05, two-way ANOVA.
(§1) B16-F1 and A20 cells were purchased from ATCC (Manassas, Va., USA). EL4 cells were used as described (Ma et al., J. Leukoc. Biol., 92: 1199-1206 (2012), incorporated by reference herein). 1×10^6 EL4 tumor cells were given by subcutaneous (s.c.) or tail vein injection, 3×10^5 B16-F1 tumor cells were given by intrasplenic injection as described before (Eggert et al., Cancer Cell, 30: 533-547 (2016), incorporated by reference herein), and 1×10^6 A20 tumor cells were given by tail vein injection.
NKT cells are known to have anti-tumor function and can directly kill CD1d expressing tumors. All three tested tumor models (B16, EL4 and A20) expressed […] at different levels (FIG. 22). To investigate the role of NKT cells in this setting, CD1d knockout and CXCR6 knockout mice were used. CD1d knockout mice completely lack NKT cells, while CXCR6 knockout mice have a selective NKT deficiency in the liver. Loss of hepatic NKT cells in these mice was confirmed (FIG. 23). […]
EL4 tumor cells were injected into ABX-pre-administered CXCR6^−/− mice. ω-MCA was given as described above. Liver surface tumors were counted three weeks after tumor injection.

[3] = tested on: A20 tumor cells; test: Tail vein A20 tumor cell injection, liver metastasis; assay type: in vivo, BALB/c mice; settings: A20 tumor-bearing antibiotic (vancomycin)-administered mice, ω-MCA feeding
Excerpt: Liver metastases were counted three weeks after injection. Cumulative data are shown. n=8, p<0.05, Student's t-test.
FIG. 7B is a dot plot showing liver weight of liver sections in mice that received tail vein injection of A20 tumor cells. n=4, p<0.05, Student's t-test.
as §1
Mice were kept on ABX cocktail and fresh ABX was replaced every other day. Mice were fed with bile acids by oral gavage 48, 24 and 16 hrs prior to sacrifice. For A20 tumor bearing mice, ω-MCA were given 3 times/week. ω-MCA and CDCA were dissolved in corn oil and given at the dose of 6 mg/15 g body weight.
A20 tumor cells were i.v. injected into vancomycin-(Vanco) or H2O-administered BALB/c mice. ω-MCA (5 mg/mouse) was given by oral gavage three times/week. aCD4 antibody (GK1.5) was given i.p. at the dose of 500 μg/mouse weekly to deplete […] cells. FIGS. 30A and 30B show the results after 3 weeks.

[4] = tested on: CXCL16; test: CXCL16 mRNA in primary murine LSECs administered bile acids; assay type: cell-based, mice; settings: primary murine LSECs in vitro, 24 hours
Excerpt: FIG. 28E is a dot plot showing CXCL16 mRNA levels of isolated LSECs administered different bile acids, in accordance with embodiments of the invention. n=5, p<0.05, one-way ANOVA.
FIG. 28F is a dot plot showing CXCL16 mRNA levels of isolated LSECs administered a combination of T-b-MCA with T-w-MCA or ω-MCA. n=5, p<0.05, one-way ANOVA.
Primary mice liver sinusoidal endothelia cells were isolated as previously described (Limmer et al., Nat. Med., 6: 1348-1354 (2000), incorporated by reference herein). Briefly, mice were CO2 euthanized, and then the portal vein was cannulated, and the liver was perfused with 0.05% collagenase in Ca^2+ deprived medium. Liver cells were dissociated, and parenchymal cells were killed by incubation in 0.04% collagenase in Gey's balanced salt solution at 37° C. for 15 minutes. Then density gradient centrifugation was performed using Nycodenz solution at the final solution of 1.089 g/cm^3. Liver sinusoidal endothelial cells (LSEC) were isolated using anti-LSEC microbeads (Miltenyi, Bergisch Gladbach, Germany) according to the manufacturer's instructions. LSECs or the human SK-HEP1 cell line (ATCC, HTB-52) were administered different bile acids for 24 hours. Gene expression was analyzed by real-time PCR. […]

## C[C@H](CCC(=O)O)[C@H]1CC[C@H]2[C@@H]3[C@@H](O)[C@H](O)[C@@H]4C[C@H](O)CC[C@]4(C)[C@H]3CC[C@]12C [ω-MCA, ω-muricholic acid]
[1]
  hepatic NKT accumulation: effectively reversed hepatic NKT accumulation
[2]
  liver tumor development: failed to affect
[3]
  liver tumor growth: reversed the inhibition of liver tumor growth
[4]
  cxcl16 mRNA expression: decreased
